We go through two compounds from patent publication US12053545B2, “Transdermal solvent system and methods of use” (Donaghys Limited, priority 2019, dated 2024).

The nature of this data set: Stability of dual anthelmintic solvent system, accelerated aging at 40° C. for 12 months. The format is physicochemical. Particulars: for Concentration after 6 months / Concentration after 12 months: active in solvent system of Example 4, 40° C. accelerated aging; for Initial concentration: active in solvent system of Example 4, initial.

In the case of `c1ccc([C@H]2CN3CCSC3=N2)cc1` [Levamisole], the “Concentration after 6 months” value came out at 25450 µg/mL, the “Concentration after 12 months” value was determined as 24100 µg/mL and the Initial concentration turned out to be 27.15 g/L.

On to Eprinomectin, for which the “Concentration after 6 months” value was 15800 µg/mL, the “Concentration after 12 months” value came to 14600 µg/mL and the Initial concentration is on record as 16.5 g/L.
